Measured values from the Deep4Chem optical property database.

Experiment: solvent given as SMILES

COc1cc2c3c4c(c5ccc(C(C)(C)C)cc5c5cc(C(C)(C)C)cc(c2c(OC)c1OC)c45)=[N+]1C3=Nc2c3c4cc(OC)c(OC)c(OC)c4c4cc(C(C)(C)C)cc5c6cc(C(C)(C)C)ccc6c(c3c54)n2[B-]1(F)F
emission maximum (in Cc1ccccc1): 832 nm

Cc1cc(C)c(C2=C3C=C(/C=C/C(=O)OC(C)(C)C)C=[N+]3[B-](F)(F)n3cc(/C=C/C(=O)OC(C)(C)C)cc32)c(C)c1
emission maximum (in ClCCl): 610 nm

c1ccc(-c2nc(-c3ccc(-c4nc(-c5ccccc5)c(-c5ccccc5)o4)cc3)oc2-c2ccccc2)cc1
emission maximum (in C1COCCO1): 428 nm

CCCCCCCCCCCCN1C(=O)c2c(c3ccc4cc(-c5ccc(N(C)C)cc5)c(OC)cc4c3c3c2ccc2cc(-c4ccc(N(C)C)cc4)c(OC)cc23)C1=O
emission maximum (in ClCCl): 620 nm

N#Cc1ccc2[nH]ccc2c1
emission maximum (in C1CCOC1): 349 nm | emission maximum (in C1COCCO1): 348 nm | emission maximum (in CC#N): 362 nm | emission maximum (in CC(C)O): 362 nm | emission maximum (in CCO): 364 nm | emission maximum (in CO): 367 nm | emission maximum (in CS(C)=O): 371 nm | emission maximum (in O): 390 nm | emission maximum (in OCC(F)(F)F): 374 nm

CN(C)c1ccc(-c2cccc3nsnc23)cc1
emission maximum (in ClCCl): 635 nm

Cc1ccc2c(c1)c1cc(C)ccc1n2-c1c(-n2c3ccccc3c3ccccc32)c(C#N)c(-n2c3ccccc3c3ccccc32)c(-n2c3ccc(C)cc3c3cc(C)ccc32)c1-n1c2ccccc2c2ccccc21
emission maximum (in Cc1ccccc1): 480 nm

N#Cc1cccc(C#N)c1-n1c2ccccc2c2cc(-c3ccc4c(c3)c3ccccc3n4-c3c(C#N)cccc3C#N)ccc21
emission maximum (in Cc1ccccc1): 488 nm | emission maximum (in O=P(c1ccccc1)(c1ccccc1)c1ccccc1Oc1ccccc1P(=O)(c1ccccc1)c1ccccc1): 488 nm

N#Cc1cc2ccccc2oc1=O
emission maximum (in C1CCCCC1): 412 nm | emission maximum (in C1CCOC1): 409 nm | emission maximum (in CC#N): 407 nm | emission maximum (in CCOC(C)=O): 410 nm | emission maximum (in CS(C)=O): 405 nm | emission maximum (in ClC(Cl)Cl): 411 nm

COc1ccc(-c2cccc3ncc(-c4ccc(C#N)cc4)n23)cc1
emission maximum (in ClCCl): 447 nm

c1ccc2c(c1)Oc1ccccc1B2c1ccc(N2c3ccccc3Oc3ccccc32)cc1
emission maximum (in Cc1ccccc1): 522 nm

CCCCCCCCOc1cc(/C=C/c2cc(OCCCCCCCC)c(/C=C/c3cc(OCCCCCCCC)c(Br)cc3OCCCCCCCC)cc2OCCCCCCCC)c(OCCCCCCCC)cc1Br
emission maximum (in ClCCl): 467 nm

COc1ccc(-c2cn3ccc[n+]3[n-]2)cc1
emission maximum (in ClCCl): 413 nm

C(#Cc1nccnc1C#Cc1ccccc1)c1ccccc1
emission maximum (in CC#N): 380 nm

c1ccc(-c2nnc(-c3ccc(N4c5ccccc5Oc5ccccc54)cc3)o2)cc1
emission maximum (in Cc1ccccc1): 495 nm | emission maximum (in c1ccc(-n2c(-c3c(-n4c5ccccc5c5ccccc54)cccc3-n3c4ccccc4c4ccccc43)nc3ccccc32)cc1): 498 nm

CN(C)c1ccc(C2=Nc3sc4c(F)c(F)c(F)c(F)c4[n+]3[B-](F)(F)O2)cc1
emission maximum (in C1CCOC1): 492 nm | emission maximum (in CC#N): 503 nm | emission maximum (in Cc1ccccc1): 464 nm | emission maximum (in ClCCl): 483 nm

Cc1ccccc1C1=C2C=CC(=[N+](C)C)C=[C]2[Ge]([CH3])([CH3])[c]2cc(N(C)C)ccc21
emission maximum (in O): 649 nm

N#Cc1ccc(/C2=C3N=C(C(c4ccccc4)=C/3c3ccccc3)/C(c3ccc(C#N)cc3)=c3\[nH]/c(c(-c4ccccc4)c3-c3ccccc3)=C(/c3ccc(C#N)cc3)C3=N/C(=C(/c4ccc(C#N)cc4)c4[nH]c2c(-c2ccccc2)c4-c2ccccc2)C(c2ccccc2)=C3c2ccccc2)cc1
emission maximum (in ClCCl): 725 nm

CCCCCCN1C(=O)c2cccc3c(-c4ccc(-c5cc(-c6ccc(C)cc6)nn5-c5ccccc5)s4)ccc(c23)C1=O
emission maximum (in ClCCl): 519 nm

N#Cc1c(-c2ccccc2)cc(N2c3ccccc3Oc3ccccc32)cc1-c1ccccc1
emission maximum (in C1CCCCC1): 455 nm

CN(C)CCCN1c2ccccc2CCc2ccc(Cl)cc21
emission maximum (in CC#N): 348 nm | emission maximum (in CO): 353 nm | emission maximum (in O): 400 nm

CCCCCCN1C(=O)c2cccc3c(-c4ccc(-c5cccs5)s4)ccc(c23)C1=O
emission maximum (in ClC(Cl)Cl): 534 nm

Cc1cc(-n2c3ccccc3c3ccccc32)ccc1-c1ccc(S(=O)(=O)c2ccccc2)cc1C
emission maximum (in C1CCOC1): 401.77 nm | emission maximum (in CC#N): 450.48 nm | emission maximum (in Cc1ccccc1): 349 nm | emission maximum (in ClCCl): 419.86 nm
